The target of this test is T1, Gal4-HNF4α (human HNF4α LBD) (Homo sapiens, UniProt P41235).
T1 construct: uniprot entry: P41235-1, residues 142-377; expressed in transfected cells; host or cells: HEK293T
T1 sequence (P41235 142-377): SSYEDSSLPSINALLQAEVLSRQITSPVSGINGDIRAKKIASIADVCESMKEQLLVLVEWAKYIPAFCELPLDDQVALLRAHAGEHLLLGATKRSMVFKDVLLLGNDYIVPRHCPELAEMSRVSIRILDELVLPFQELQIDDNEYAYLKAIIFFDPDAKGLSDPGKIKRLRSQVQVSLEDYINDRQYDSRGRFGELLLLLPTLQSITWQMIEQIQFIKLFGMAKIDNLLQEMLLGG
In words: Hybrid Gal4-HNF4α reporter gene assay in transiently transfected HEK293T cells. The class given is cell-based.

Where [1] appears, read: Table S1, primary screening, 50 µM.

Several values for one entry are separate records, joined by “and”; a condition that tells them apart may be missing. Identical values can stand only once. Like-named read-outs stand apart in the source and are kept apart here.

As to `CCN(CC)CCNC(=O)c1ccc(N)c(Cl)c1` [Prestw-Frag-3120, CCN(CC)CCNC(=O)c1ccc(N)c(Cl)c1], under setting [1], the “HNF4a-screening_activity_(mean_of_n=2)” value was found to be 1.18.

`CCCOc1ccc(C(=O)OCC)cc1N` [Prestw-Frag-2724, CCCOc1ccc(cc1N)C(=O)OCC]: under setting [1], the “HNF4a-screening_activity_(mean_of_n=2)” value was found to be 1.372.

Take `CN1CCN(C(c2ccccc2)c2ccccc2)CC1` [Prestw-Frag-1325, CN1CCN(CC1)C(c1ccccc1)c1ccccc1]: the “HNF4a-screening_activity_(mean_of_n=2)” value under setting [1] is reported as 0.9831.

On to `OC(c1ccccc1)(c1ccccc1)C1CCNCC1` [Prestw-Frag-1654, OC(C1CCNCC1)(c1ccccc1)c1ccccc1], for which the “HNF4a-screening_activity_(mean_of_n=2)” value under setting [1] was 1.142 and 1.152.

As to `O=C1COc2ccccc21` [Prestw-Frag-1361, O=C1COc2ccccc12], the “HNF4a-screening_activity_(mean_of_n=2)” value under setting [1] came out at 1.58.

Turning to `O=C(O)/C=C/c1cnc[nH]1` [Prestw-Frag-3090, OC(=O)\C=C\c1cnc[nH]1], the “HNF4a-screening_activity_(mean_of_n=2)” value under setting [1] is listed as 1.054.

On to `NS(=O)(=O)c1ccccc1C(F)(F)F` [Prestw-Frag-1394, NS(=O)(=O)c1ccccc1C(F)(F)F], for which, under setting [1], the “HNF4a-screening_activity_(mean_of_n=2)” value stood at 0.846.

For the compound `CC(=O)c1ccc(N2CCNCC2)c(F)c1` [Prestw-Frag-1094, CC(=O)c1ccc(N2CCNCC2)c(F)c1], the “HNF4a-screening_activity_(mean_of_n=2)” value under setting [1] is 1.1 and 1.293.

On to `CC(=O)Nc1nncs1` [Prestw-Frag-1008, CC(=O)Nc1nncs1], for which the “HNF4a-screening_activity_(mean_of_n=2)” value under setting [1] was 1.066 and 0.8521.

As to `NC1CCc2[nH]c3ccccc3c2C1` (centres unmarked) [Prestw-Frag-3709, NC1CCc2[nH]c3ccccc3c2C1], the “HNF4a-screening_activity_(mean_of_n=2)” value under setting [1] is 1.209.

For `c1ccc(C(c2ccccc2)n2cncn2)cc1` [Prestw-Frag-2645, c1ncn(n1)C(c1ccccc1)c1ccccc1], the “HNF4a-screening_activity_(mean_of_n=2)” value under setting [1] stood at 0.9885.

Consider `CCCCc1nc(Cl)c(CO)[nH]1` [Prestw-Frag-3114, CCCCc1nc(Cl)c(CO)[nH]1], for which the “HNF4a-screening_activity_(mean_of_n=2)” value under setting [1] stood at 0.9053.

With `O=C(O)CCC(=O)Nc1ccccc1` [Prestw-Frag-2383, OC(=O)CCC(=O)Nc1ccccc1], under setting [1], the “HNF4a-screening_activity_(mean_of_n=2)” value was 0.9265.

Turning to `COc1ccc2cc[nH]c2c1` [Prestw-Frag-1372, COc1ccc2cc[nH]c2c1], the “HNF4a-screening_activity_(mean_of_n=2)” value under setting [1] is listed as 1.02.

As to `COc1ccc(OCC(N)=O)cc1` [Prestw-Frag-1812, COc1ccc(OCC(N)=O)cc1], under setting [1], the “HNF4a-screening_activity_(mean_of_n=2)” value is 0.9996 and 1.207.

As for `O=C(O)c1cnccn1` [Prestw-Frag-1495, OC(=O)c1cnccn1], the “HNF4a-screening_activity_(mean_of_n=2)” value under setting [1] is 1.013.

As for `c1ccc(C2CNCCO2)cc1` (centres unmarked) [Prestw-Frag-2958, C1COC(CN1)c1ccccc1], the “HNF4a-screening_activity_(mean_of_n=2)” value under setting [1] came out at 1.039.

On to `CN1C2CCC1CC(O)C2` (centres unmarked) [Prestw-Frag-0608, CN1C2CCC1CC(O)C2], for which the “HNF4a-screening_activity_(mean_of_n=2)” value under setting [1] was 1.089 and 1.102.

On to `Nc1ccc2c(c1)CCCC2` [Prestw-Frag-3682, Nc1ccc2CCCCc2c1], for which, under setting [1], the “HNF4a-screening_activity_(mean_of_n=2)” value was 0.958.

For the compound `O=C1CCOc2ccccc21` [Prestw-Frag-1740, O=C1CCOc2ccccc12], under setting [1], the “HNF4a-screening_activity_(mean_of_n=2)” value is 0.9806.

On to `CS(=O)(=O)Nc1ccccc1Oc1ccccc1` [Prestw-Frag-1861, CS(=O)(=O)Nc1ccccc1Oc1ccccc1], for which the “HNF4a-screening_activity_(mean_of_n=2)” value under setting [1] was 1.046 and 0.7818.

With `CN1C(=O)CCC1=O` [Prestw-Frag-2713, CN1C(=O)CCC1=O], the “HNF4a-screening_activity_(mean_of_n=2)” value under setting [1] is reported as 0.9037.

Consider `CS(=O)(=O)c1ccc(CO)cc1` [Prestw-Frag-2234, CS(=O)(=O)c1ccc(CO)cc1], for which the “HNF4a-screening_activity_(mean_of_n=2)” value under setting [1] is 0.954.

For the compound `NCCCOc1cccc(CN2CCCCC2)c1` [Prestw-Frag-2808, NCCCOc1cccc(CN2CCCCC2)c1], the “HNF4a-screening_activity_(mean_of_n=2)” value under setting [1] is listed as 1.297.

Turning to `CCOc1ccccc1OCC1CNCCO1` (centres unmarked) [Prestw-Frag-2992, CCOc1ccccc1OCC1CNCCO1], the “HNF4a-screening_activity_(mean_of_n=2)” value is 0.7878.

Take `Oc1cccc(CN2CCCCC2)c1` [Prestw-Frag-2809, Oc1cccc(CN2CCCCC2)c1]: under setting [1], the “HNF4a-screening_activity_(mean_of_n=2)” value is on record as 1.12.
